The source of these data is patent US7544694B2, “Substituted diaza-spiro-[5.5]-undecane derivatives and their use as neurokinin antagonists” (Janssen Pharmaceutica N.V., priority 2004, dated 2009).

Holding throughout (assay type): cell-based
For test [1], the target named is NK1 (Homo sapiens, UniProt P25103). In words: Signal transduction (ST), intracellular Ca++ (FLIPR), functional NK1 antagonistic activity. As to conditions: antagonist, read-out: NK1 pIC50 (converted). The essentials:
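Confluent cells were loaded with 2 μM Fluo3 for 1 h at 37° C, then washed into Krebs buffer pH 7.4 with 1.25 mM CaCl2 and 2.5 mM probenecid. Antagonists were preincubated 20 min at RT before agonist addition. Peak Ca++ transients were read by FLIPR, with EC50 or IC50 from sigmoidal non-linear regression.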

The target in test [2] is T1, NK3 (Homo sapiens, UniProt P29371).
T1 sequence (P29371 1-465): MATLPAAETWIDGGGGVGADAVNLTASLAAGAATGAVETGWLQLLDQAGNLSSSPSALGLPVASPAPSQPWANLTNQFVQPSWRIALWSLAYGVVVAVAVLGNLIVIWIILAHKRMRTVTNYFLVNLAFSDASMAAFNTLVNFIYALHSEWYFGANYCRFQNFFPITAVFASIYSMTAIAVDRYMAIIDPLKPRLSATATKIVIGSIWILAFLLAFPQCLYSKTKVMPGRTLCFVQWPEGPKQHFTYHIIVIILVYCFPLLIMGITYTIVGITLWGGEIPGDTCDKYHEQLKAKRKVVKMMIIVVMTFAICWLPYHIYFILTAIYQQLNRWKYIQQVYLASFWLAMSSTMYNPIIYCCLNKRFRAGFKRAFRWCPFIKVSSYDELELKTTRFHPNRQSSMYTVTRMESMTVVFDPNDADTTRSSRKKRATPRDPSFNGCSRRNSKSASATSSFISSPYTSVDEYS
In words: Signal transduction (ST), intracellular Ca++ (FLIPR), NK3. As to conditions: antagonist, read-out: NK3 pIC50 (converted).

Test [3] has as its target T2, NK2 (Homo sapiens, UniProt P21452).
T2 sequence (P21452 1-398): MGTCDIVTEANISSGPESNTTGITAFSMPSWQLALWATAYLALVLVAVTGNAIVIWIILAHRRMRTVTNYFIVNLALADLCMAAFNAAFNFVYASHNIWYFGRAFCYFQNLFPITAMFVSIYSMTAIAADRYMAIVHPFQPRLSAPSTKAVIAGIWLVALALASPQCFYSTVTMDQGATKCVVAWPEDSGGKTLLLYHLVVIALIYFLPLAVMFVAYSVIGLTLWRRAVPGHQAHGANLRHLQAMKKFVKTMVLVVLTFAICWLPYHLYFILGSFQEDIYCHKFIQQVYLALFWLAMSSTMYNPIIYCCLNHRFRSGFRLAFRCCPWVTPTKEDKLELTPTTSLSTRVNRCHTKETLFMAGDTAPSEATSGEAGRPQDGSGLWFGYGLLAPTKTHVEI
In words: Signal transduction (ST), intracellular Ca++ (FLIPR), NK2. The settings on record: antagonist, read-out: NK2 pIC50 (converted).

Chain of NK1 (P25103 whole entry): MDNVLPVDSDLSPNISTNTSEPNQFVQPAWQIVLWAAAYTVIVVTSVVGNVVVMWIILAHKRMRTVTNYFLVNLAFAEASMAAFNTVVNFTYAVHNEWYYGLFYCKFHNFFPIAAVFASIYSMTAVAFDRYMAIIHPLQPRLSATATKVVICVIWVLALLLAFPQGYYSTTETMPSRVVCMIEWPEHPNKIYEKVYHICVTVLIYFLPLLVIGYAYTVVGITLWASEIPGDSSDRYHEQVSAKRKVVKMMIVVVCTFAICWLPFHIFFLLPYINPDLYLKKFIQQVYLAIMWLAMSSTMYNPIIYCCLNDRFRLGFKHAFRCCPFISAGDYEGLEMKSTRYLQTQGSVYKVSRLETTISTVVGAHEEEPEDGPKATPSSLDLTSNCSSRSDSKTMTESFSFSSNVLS

Consider `O=C(C1CCOC1)N1CCCC2(CCCN(C3CCN(C(=O)c4cc(C(F)(F)F)cc(C(F)(F)F)c4)C(Cc4ccccc4)C3)C2)C1` (single isomer, unassigned) [Compound 210], for which the IC50 in test [1] is 288 nM; in test [2], 1.78 µM; in test [3], 1.82 µM.

On to `Cc1nnsc1C(=O)N1CCC2(CC1)CCN([C@H]1CCN(C(=O)c3cc(C(F)(F)F)cc(C(F)(F)F)c3)[C@H](Cc3ccccc3)C1)CC2` [Compound 36], for which the IC50 in test [1] was 28.2 nM; in test [2], over 10 µM; in test [3], 4.27 µM.

Regarding `Cc1ccoc1C(=O)N1CCC2(CC1)CCN([C@H]1CCN(C(=O)c3cc(C(F)(F)F)cc(C(F)(F)F)c3)[C@H](Cc3ccccc3)C1)CC2` [Compound 25], the IC50 in test [1] was 83.2 nM; in test [2], over 10 µM; in test [3] it was 3.98 µM.

Consider `CC(C)(C)C(=O)N1CCC2(CC1)CCN([C@@H]1CCN(C(=O)c3cc(C(F)(F)F)cc(C(F)(F)F)c3)[C@H](Cc3ccccc3)C1)CC2` [Compound 8], for which the results for the IC50 in test [1], in test [2] and in test [3] were 43.7 nM, 4.47 µM and 2.82 µM, respectively.

As for `O=C1OC(CC(=O)N2CCC3(CC2)CCN([C@H]2CCN(C(=O)c4cc(C(F)(F)F)cc(C(F)(F)F)c4)[C@H](Cc4ccccc4)C2)CC3)c2ccccc21` (stereo partly drawn) [Compound 82], the figures for the IC50 in test [1], in test [2] and in test [3] were 46.8 nM, 8.91 µM and 2 µM, respectively.

In the case of `O=C1CC2(CCN1Cc1ccoc1)CCN([C@H]1CCN(C(=O)c3cc(C(F)(F)F)cc(C(F)(F)F)c3)[C@H](Cc3ccccc3)C1)CC2` [Compound 199], the IC50 in test [1] is 37.2 nM; in test [2] it was 0.851 µM; in test [3], 2.75 µM.

With `CC1CC1C(=O)N1CCC2(CC1)CCN([C@H]1CCN(C(=O)c3cc(C(F)(F)F)cc(C(F)(F)F)c3)[C@H](Cc3ccccc3)C1)CC2` (stereo partly drawn) [Compound 15], the figures for the IC50 in test [1], in test [2] and in test [3] were 129 nM, 7.94 µM and 3.16 µM, respectively.

As for `CN1CCC=C(C(=O)N2CCC3(CC2)CCN([C@H]2CCN(C(=O)c4cc(C(F)(F)F)cc(C(F)(F)F)c4)[C@H](Cc4ccccc4)C2)CC3)C1` [Compound 48], the IC50 in test [1] is 219 nM; in test [2], over 10 µM; in test [3], over 10 µM.

For `O=C(c1cc(C(F)(F)F)cc(C(F)(F)F)c1)N1CC[C@H](N2CCC3(CC2)CCN(S(=O)(=O)c2cc(Cl)cc(Cl)c2)CC3)C[C@H]1Cc1ccccc1` [Compound 114], the IC50 is 363 nM in test [1], over 10 µM in test [2] and over 10 µM in test [3].

As to `O=C(C1CCOC1)N1CCC2(CC1)CCN([C@H]1CCN(C(=O)c3cc(C(F)(F)F)cc(C(F)(F)F)c3)[C@H](Cc3ccc(F)c(F)c3)C1)CC2` (stereo partly drawn) [Compound 137], the IC50 in test [1] was 27.5 nM; in test [2] it was 1.7 µM; in test [3], 3.47 µM.

As for `O=C(c1cc(C(F)(F)F)cc(C(F)(F)F)c1)N1CC[C@H](N2CCC3(CC2)CCN(S(=O)(=O)c2cc(Cl)c(Cl)s2)CC3)C[C@H]1Cc1ccccc1` [Compound 96], the results for the IC50 in test [1], in test [2] and in test [3] were 468 nM, about 10 µM and 1.26 µM, respectively.

On to `O=C(Cc1ccc2c(c1)OCO2)N1CCC2(CC1)CCN([C@H]1CCN(C(=O)c3cc(C(F)(F)F)cc(C(F)(F)F)c3)[C@H](Cc3ccccc3)C1)CC2` [Compound 81], for which the figures for the IC50 in test [1], in test [2] and in test [3] were 115 nM, over 10 µM and 5.25 µM, respectively.

Regarding `Cc1noc(C)c1C(=O)N1CCC2(CC1)CCN([C@H]1CCN(C(=O)c3cc(C(F)(F)F)cc(C(F)(F)F)c3)[C@H](Cc3ccccc3)C1)CC2` [Compound 35], the figures for the IC50 in test [1], in test [2] and in test [3] were 19.1 nM, over 10 µM and over 10 µM, respectively.

For the compound `COc1ccc(OC)c(S(=O)(=O)N2CCC3(CCN([C@H]4CCN(C(=O)c5cc(C(F)(F)F)cc(C(F)(F)F)c5)[C@H](Cc5ccccc5)C4)CC3)CC2)c1` [Compound 123], the IC50 in test [1] was 70.8 nM; in test [2], over 10 µM; in test [3] it was about 4.07 µM.

`O=C(c1cc(C(F)(F)F)cc(C(F)(F)F)c1)N1CC[C@H](N2CCC3(CC2)CCN(S(=O)(=O)c2ccc(Cl)cc2Cl)CC3)C[C@H]1Cc1ccccc1` [Compound 112]: the figures for the IC50 in test [1], in test [2] and in test [3] were 550 nM, over 10 µM and over 10 µM, respectively.

In the case of `O=C(c1ccoc1)N1CCC2(CC1)CCN([C@H]1CCN(C(=O)c3cc(C(F)(F)F)cc(C(F)(F)F)c3)[C@H](Cc3ccc(F)c(F)c3)C1)CC2` [Compound 140], the IC50 is 23.4 nM in test [1], 2.45 µM in test [2] and 3.47 µM in test [3].

In the case of `O=C(c1cc(C(F)(F)F)cc(C(F)(F)F)c1)N1CC[C@@H](N2CCC3(CCN(C(=O)C45CC6CC(CC(C6)C4)C5)CC3)CC2)C[C@H]1Cc1ccccc1` [Compound 59], the IC50 is 347 nM in test [1], 5.89 µM in test [2] and over 10 µM in test [3].

With `O=C1CC2(CCN1Cc1ccccc1F)CCN([C@@H]1CCN(C(=O)c3cc(C(F)(F)F)cc(C(F)(F)F)c3)[C@H](Cc3ccccc3)C1)CC2` [Compound 203], the IC50 in test [1] was 661 nM; in test [2], over 10 µM; in test [3], 3.39 µM.

On to `O=C(c1ccc(=O)oc1)N1CCC2(CC1)CCN([C@H]1CCN(C(=O)c3cc(C(F)(F)F)cc(C(F)(F)F)c3)[C@H](Cc3ccccc3)C1)CC2` [Compound 46], for which the results for the IC50 in test [1], in test [2] and in test [3] were 105 nM, over 10 µM and 6.31 µM, respectively.

For the compound `O=C(c1cc(C(F)(F)F)cc(C(F)(F)F)c1)N1CC[C@H](N2CCC3(CCN(C(=O)C4(c5ccccc5)CCCC4)CC3)CC2)C[C@H]1Cc1ccccc1` [Compound 90], the IC50 is 355 nM in test [1], over 10 µM in test [2] and 5.37 µM in test [3].

`O=C(c1ccoc1)N1CCC2(CC1)CCN([C@H]1CCN(C(=O)c3cc(C(F)(F)F)cc(C(F)(F)F)c3)[C@H](Cc3ccccc3)C1)CC2` [Compound 24]: the IC50 in test [1] was 112 nM; in test [2], 1.32 µM; in test [3] it was over 10 µM.

With `COc1ccc(S(=O)(=O)N2CCC3(CCN([C@H]4CCN(C(=O)c5cc(C(F)(F)F)cc(C(F)(F)F)c5)[C@H](Cc5ccccc5)C4)CC3)CC2)cc1` [Compound 121], the IC50 in test [1] is 112 nM; in test [2], 3.72 µM; in test [3] it was 1.2 µM.

As to `O=C(c1ccsc1)N1CCC2(CC1)CCN(C(=O)[C@H]1CCN(C(=O)c3cc(C(F)(F)F)cc(C(F)(F)F)c3)[C@H](Cc3ccccc3)C1)CC2` [Compound 189], the IC50 in test [1] was 28.8 nM; in test [2] it was over 10 µM; in test [3], 6.76 µM.

In the case of `CC(C)(C)OC(=O)N1CCCC1C(=O)N1CCC2(CC1)CCN(C(=O)[C@H]1CCN(C(=O)c3cc(C(F)(F)F)cc(C(F)(F)F)c3)[C@H](Cc3ccccc3)C1)CC2` (stereo partly drawn) [Compound 188], the IC50 in test [1] was 15.1 nM; in test [2] it was 3.72 µM; in test [3], 5.5 µM.

As to `Cn1cccc1C(=O)N1CCC2(CC1)CCN([C@H]1CCN(C(=O)c3cc(C(F)(F)F)cc(C(F)(F)F)c3)[C@H](Cc3ccccc3)C1)CC2` [Compound 33], the results for the IC50 in test [1], in test [2] and in test [3] were 200 nM, over 10 µM and over 10 µM, respectively.

In the case of `O=C(c1ccc[nH]c1=O)N1CCC2(CC1)CCN([C@H]1CCN(C(=O)c3cc(C(F)(F)F)cc(C(F)(F)F)c3)[C@H](Cc3ccccc3)C1)CC2` [Compound 55], the IC50 was 158 nM in test [1], over 10 µM in test [2] and 3.98 µM in test [3].
